Reference: paper PMC11062899, “De novo development of small cyclic peptides that are orally bioavailable” (Nature Chemical Biology, 2023)
Values joined by “and” are separate entries in the source; they are usually repeats but may differ in a detail not shown here. Identical values can stand only once. Like-named read-outs stand apart in the source and are kept apart here.

Key:
[1] = biological target: T1, porcine pepsin (Sus scrofa, UniProt P00791); assay: Peptide stability in simulated gastric fluid (SGF); type: in vitro ADME; set-up: remaining at 8 h: dose or concentration left out as unconfirmed; conditions: for SGF stability, Residual peptide: single replicates R1-R3; for remaining at 8 h: pH 1.2
T1 construct: 0.32 g of porcine pepsin (Sigma-Aldrich, P7125) was dissolved under gentle agitation; purchased Sigma-Aldrich P7125
T1 sequence (P00791 60-385): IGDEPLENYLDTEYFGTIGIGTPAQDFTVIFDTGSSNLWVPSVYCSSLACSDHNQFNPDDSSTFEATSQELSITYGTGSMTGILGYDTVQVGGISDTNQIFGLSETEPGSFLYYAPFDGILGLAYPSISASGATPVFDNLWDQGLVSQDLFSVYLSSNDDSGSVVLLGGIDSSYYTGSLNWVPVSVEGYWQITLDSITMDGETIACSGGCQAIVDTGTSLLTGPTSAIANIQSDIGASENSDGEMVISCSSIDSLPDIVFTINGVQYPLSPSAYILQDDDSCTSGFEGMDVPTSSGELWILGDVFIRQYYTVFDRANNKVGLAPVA
Outline: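 Peptide from a 1 mM DMSO stock was added to fluid pre-warmed at 37 °C. SGF was pH 1.2 NaCl with porcine pepsin (0.32 g per 100 ml), and SIF was pH 6.8 potassium phosphate with porcine pancreatin (1 g per 100 ml). Supernatant peptide was quantified by LC–MS, with residual expressed as T1/T0.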

[2] = biological target: human α-thrombin (Homo sapiens, UniProt P00734); assay: Screen of 8,448-member cyclic peptide library against thrombin (crude reactions, 10 μM); type: biochemical; conditions: 10 μM crude peptide, slopes normalized to DMSO; for Residual thrombin activity: Replica: repeated acylation and screen
Procedure: The cyclic peptides were N-acylated with activated carboxylic acids as follows. Volumes of 25 nl of cyclic peptides and 25 nl of activated carboxylic acids were transferred in a combinatorial fashion to 384-well microplates (Greiner, 781076) using an Echo 650 acoustic liquid handler (Labcyte). Plates were centrifuged at 2,000g for 2 min and incubated at room temperature for 8 h. […] The reaction products were screened for thrombin inhibition as follows. […] Thrombin inhibition was determined by measuring the fluorescent gain over time. Fluorescence intensity was measured on a Tecan Infinite […] microplate reader for 30 min at 25 °C with a fluorescent readout every 3 min (excitation: 360 nm, emission: 465 nm). Protease inhibition was calculated by comparing the enzymatic activity to a control without cyclic peptide. page 48: Supplementary Tables Supplementary Table 1 […] Cyclic peptide high-throughput screen. Category Parameter Description Assay Type of assay In vitro Target Human α thrombin Primary measurement Proteolytic cleavage of fluorogenic substrate Key reagents […] (Bachem) Assay protocol Described in Materials section “Thrombin library synthesis and screening” Additional comments - […] Library composition Cyclic peptides Source Combinatorial synthesis. Described in Methods section “Thrombin library synthesis and screening” Additional comments - Screen Format 384 well microtiter plates (Greiner, 781076) Concentration(s) tested 10 µM Plate controls 20 wells DMSO, 4 wells human α thrombin inhibitor R-11-25-2 (DOI: 10.1039/d0sc01944e) Reagent/ compound dispensing system Echo 650 (Beckman Coulter), […]) Detection instrument and software Tecan Infinite […] microplate reader Assay validation/QC Z' score: 0.86 Correction factors - Normalization Percent fluorescent gain over time as compared to DMSO Additional comments - […] Additional assay(s) Resynthesis and retesting of 20 best hits in original assay Confirmation of hit purity and structure Compounds were resynthesized and verified analytically Additional comments - 47

[3] = in vivo; conditions: rat
Procedure: Male Wistar Han rats (250–350 g) obtained at an age of 9–10 weeks from Charles River Laboratories were used for the studies and kept in housing groups of two or three. Experiments were performed at the age of 10–11 weeks. Intravenous (i.v.) administrations were carried out using tail vein injections. Peptides were dissolved in pure DMSO and diluted with 5% Cremophor EL in water (5% DMSO final) at a concentration of 0.5 mg ml^−1. I.v. administration was carried out at a dose of 1 mg kg^−1 body weight via the left lateral tail vein of rats (n = 3) using an Insyte-W 24 G × 0.75 in. (0.7 mm × 19 mm) temporary peripheral venous catheter (BD Biosciences, 381312). Before injecting the peptide solution, a correct placement of the catheter was confirmed by an apparent reflux of blood through the catheter. Orally (p.o.) administrated peptides were dissolved in DMSO and diluted with 10% Cremophor EL in water (5% DMSO final) at a concentration of 1 mg ml^−1 and administrated by oral gavage to rats (n = 3) at a dose of 10 mg kg^−1. Rats used for oral administration were fasted overnight for 14 h and provided access to food again 2 h after administration, whereas access to water was not restricted throughout the whole experimental procedure. Volumes of 100 μl of blood samples were collected via the right lateral tail vein at different timepoints after i.v. or p.o. administration into heparinized tubes (Sarstedt, 20.1282); the samples were stored on ice for up to 4 h; and plasma was obtained by centrifugation at 2,000g for 5 min at 4 °C. A volume of 40 μl of plasma was added to 120 μl of an acetonitrile:water (9:1) solution containing an internal standard (5 μg ml^−1). Samples were vortexed for 10 s and sonicated for 10 min, and precipitated plasma proteins were pelleted by centrifugation at 16,000g for 15 min at 4 °C. Volumes of 120 μl of supernatant were transferred to a new tube, and solvent was evaporated in a rotary vacuum concentrator (RVC 2–33 CDplus IR, Christ) for 2 h at 40 °C. Dried residues were dissolved in 20 μl of a water:acetonitrile (7:3) (v/v) solution, centrifuged at 14,000g for 5 min and analyzed by LC–MS. Peptides were quantified by extracting ion chromatograms corresponding to their respective mass, integrating the area under the peptide peak and calculating the concentrations by normalization to a calibration curve. Calibration curves were prepared by analyzing spiked samples of blood or plasma with known concentrations of peptide. The absolute oral bioavailability was calculated using equation (6).6 F=AUCp.o./AUCi.v.×Dosei.v./Dosep.o.×100 where AUCp.o. and AUCi.v. are calculated from a plasma concentration versus time curve using the linear trapezoidal rule, and Dosei.v. and Dosep.o. are the intravenously or orally administrated amount of peptide in mg kg^−1.

[4] = after 8 h vs 0 h (TIC), average of R1-R3
[5] = simulated gi fluid, 8 h, 37 °C, read-out: Proteolytic stability: SGF (8 h) % remaining
[6] = pig, simulated gi fluid, 8 h, 37 °C, read-out: Proteolytic stability: SGF (8 h) % remaining
[7] = male, Wistar Han, iv, 1 mg/kg, Concentration in blood samples
[8] = male, Wistar Han, po, 10 mg/kg, Concentration in blood samples
[9] = male, Wistar Han, iv, 1 mg/kg, Plasma Concentration (uM)

Structure (SMILES): O=C1CSCCC[C@H](NC(=O)c2ccc(Cl)s2)C(=O)N[C@@H](Cc2ccccc2)C(=O)N2CCC[C@@H]2CC(=O)NCCSC1 [compound 37]
- SGF stability, Residual peptide Average [1, 4]: 106.20
- SGF stability, Residual peptide ([1]; after 8 h vs 0 h (TIC)): 119.66 and 103.22 and 95.72
- remaining at 8 h [1, 5]: 106 ± 12%

Structure (SMILES): CN1CCC(=O)NCCSCCS(=O)(=O)CCSC[C@H](NC(=O)c2ccc(Cl)s2)C(=O)N[C@@H](Cc2ccccc2)C1=O [compound 14]
- SGF stability, Residual peptide Average [1, 4]: 95.02
- SGF stability, Residual peptide ([1]; after 8 h vs 0 h (TIC)): 100.52 and 97.58 and 86.97
- remaining at 8 h [1, 6]: 95 ± 7%
- Residual thrombin activity: Screen [2]: 29.3
- Residual thrombin activity: Replica [2]: 33.0

Structure (SMILES): O=C1C[C@H]2CCCN2C(=O)[C@H](Cc2ccccc2)NC(=O)[C@@H](NC(=O)c2ccc(Cl)s2)CCCSCc2cccc(n2)CSCCN1 [compound 35]
- SGF stability, Residual peptide Average [1, 4]: 98.71
- SGF stability, Residual peptide ([1]; after 8 h vs 0 h (TIC)): 102.19 and 96.66 and 97.27
- remaining at 8 h [1, 5]: 99 ± 3%

Structure (SMILES): O=C1C[C@H]2CCCN2C(=O)[C@H](Cc2ccccc2)NC(=O)[C@@H](NC(=O)c2ccc(Cl)s2)CCSCc2cccc(n2)CSCCN1 [compound 33]
- SGF stability, Residual peptide Average [1, 4]: 94.64
- SGF stability, Residual peptide ([1]; after 8 h vs 0 h (TIC)): 93.36 and 101.37 and 89.19
- remaining at 8 h [1, 5]: 95 ± 6%

Structure (SMILES): O=C1C[C@H]2CCCN2C(=O)[C@H](Cc2ccccc2)NC(=O)[C@@H](NC(=O)c2ccc(Cl)s2)CSCCS(=O)(=O)CCSCCN1 [peptide 11]
- SGF stability, Residual peptide ([1]; after 8 h vs 0 h (TIC)): 36.24 and 43.40 and 29.72
- remaining at 8 h ([1]; pig, simulated gastric fluid (SGF, USP) with porcine pepsin, after 8 h vs 0 h (TIC), average of R1-R3, read-out: SGF stability, Residual peptide Average): 36.5%
- remaining at 8 h [1, 5]: 36 ± 7%
- Residual thrombin activity: Screen [2]: 3.1
- Residual thrombin activity: Replica [2]: 1.5

Structure (SMILES): O=C1C[C@H]2CCCN2C(=O)[C@H](Cc2ccccc2)NC(=O)[C@@H](NC(=O)c2ccc(Cl)s2)CSCc2cccc(n2)CSCCN1 [compound 31]
- SGF stability, Residual peptide Average [1, 4]: 92.45
- SGF stability, Residual peptide ([1]; after 8 h vs 0 h (TIC)): 99.51 and 90.02 and 87.82
- remaining at 8 h [1, 5]: 92 ± 6%

Structure (SMILES): O=C1C[C@H]2CCCN2C(=O)[C@H](Cc2ccccc2)NC(=O)[C@@H](NC(=O)c2ccc(Cl)cc2)CCC=CCCCCN1 (mixture of isomers) [peptide 46]
- remaining at 8 h [1, 6]: 96 ± 12%
- Concentration in blood samples ([3]; male, Wistar Han, iv, 1 mg/kg, 1 h): 0.09 µM
- level at time molar at 0.08 h [3, 7]: 1.31 µM
- level at time molar at 0.25 h [3, 7]: 0.59 µM
- level at time molar at 0.5 h [3, 7]: 280 nM
- level at time molar at 1 h [3, 7]: 120 nM
- level at time molar at 2 h [3, 7]: 0.0535 µM
- level at time molar at 0.5 h [3, 8]: 290 nM
- level at time molar at 1 h [3, 8]: 240 nM
- level at time molar at 2 h [3, 8]: 0.2 µM
- level at time molar at 8 h [3, 8]: 17.1 nM
- bioavailability ([3]; po): 18.4 ± 1.9%
- Cmax ([3]; po, 10 mg/kg): 400 ± 120 nM

Structure (SMILES): O=C1C[C@H]2CCCN2C(=O)[C@H](Cc2ccccc2)NC(=O)[C@@H](NC(=O)c2ccc(Cl)s2)CCSC/C=C/CSCCN1 [compound 34]
- SGF stability, Residual peptide Average [1, 4]: 99.21
- SGF stability, Residual peptide ([1]; after 8 h vs 0 h (TIC)): 107.50 and 92.24 and 97.90
- remaining at 8 h [1, 5]: 99 ± 8%

Structure (SMILES): O=C1C[C@H]2CCCN2C(=O)[C@H](Cc2ccccc2)NC(=O)[C@@H](NC(=O)c2ccc(Cl)s2)CCCSC/C=C/CSCCN1 [compound 36]
- SGF stability, Residual peptide Average [1, 4]: 87.04
- SGF stability, Residual peptide ([1]; after 8 h vs 0 h (TIC)): 86.50 and 93.65 and 80.97
- remaining at 8 h [1, 5]: 87 ± 6%

Structure (SMILES): O=C1C[C@H]2CCCN2C(=O)[C@H](Cc2ccccc2)NC(=O)[C@@H](NC(=O)c2ccc(Cl)s2)CSC/C=C/CSCCN1 [peptide 32]
- SGF stability, Residual peptide Average [1, 4]: 106.85
- SGF stability, Residual peptide ([1]; after 8 h vs 0 h (TIC)): 117.40 and 115.58 and 87.56
- remaining at 8 h [1, 5]: 107 ± 17%

Structure (SMILES): O=C1C[C@H]2CCCN2C(=O)[C@H](Cc2ccccc2)NC(=O)[C@@H](NC(=O)c2ccc(Cl)s2)CCC=CCCCCN1 [peptide 43]
- remaining at 8 h [1, 6]: 101 ± 12%
- level at time molar at 0.08 h [3, 9]: 3.19 µM
- level at time molar at 0.25 h [3, 9]: 1.63 µM
- level at time molar at 2 h [3, 9]: 0.29 µM
- Tmax ([3]; male, Wistar Han, po): 30 min
- bioavailability ([3]; po): 4.5 ± 2.5%
- Cmax ([3]; po, 10 mg/kg): 183 ± 96 nM
